How the values were obtained:
[1] = system: induction of TAT by dexamethasone in HepG2 cells; test: Hep G2 TAT assay (inhibition of dexamethasone-induced TAT); format: cell-based, human; settings: agonist induction of TAT, read-out: average EC50 value (half-maximal effect) of TAT production
[2] = system: induction of TAT by dexamethasone in HepG2 cells; test: as above; format: cell-based, human; settings: challenge of 100 nM dexamethasone, IC50 converted to Ki by Cheng and Prusoff equation
[3] = molecular target: glucocorticoid receptor (GR) recombinant ligand binding domain (LBD) (Homo sapiens (Human), UniProt P04150); test: GR binding fluorescence polarisation (FP) assay; settings: displacement of fluorescently tagged ligand
Protocol: Binding of test compounds to the glucocorticoid receptor (GR) is determined using a fluorescence polarisation (FP) assay utilising a recombinant ligand binding domain (LBD) of GR. The test compounds are assessed by their ability to displace a fluorescently tagged ligand and detection of the resulting decrease in fluorescence polarisation.

glucocorticoid receptor (GR) recombinant ligand binding domain (LBD), sequence (P04150 524-758): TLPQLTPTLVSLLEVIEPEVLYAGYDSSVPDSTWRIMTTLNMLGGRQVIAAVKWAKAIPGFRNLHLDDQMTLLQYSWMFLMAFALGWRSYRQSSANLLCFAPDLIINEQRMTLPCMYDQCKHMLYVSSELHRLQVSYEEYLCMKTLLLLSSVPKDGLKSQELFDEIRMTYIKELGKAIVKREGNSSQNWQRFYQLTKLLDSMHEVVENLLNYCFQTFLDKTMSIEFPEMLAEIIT

SMILES	EC50 [1]	IC50 [3]	Ki [2]
C[C@@H]1C[C@H]2[C@@H]3CCC4=CC(=O)C=C[C@]4(C)[C@@]3(F)[C@@H](O)C[C@]2(C)[C@@]1(O)C(=O)CO [Dexamethasone, dexamethasone]	0.02 µM	–	–
Cc1cc2c(cnn2-c2ccc(=O)n(C)c2)cc1C1(Cc2ccccc2)CCN(C(=O)C(C)(F)F)C1 (stereo not shown) [Example 328, 5-(5-(3-benzyl-1-(2,2-difluoropropanoyl)pyrrolidin-3-yl)-6-methyl-1H-indazol-1-yl)-1-methylpyridin-2(1H)-one]	–	0.018 µM	0.11 µM
Cc1cc2c(cnn2-c2ccc(=O)n(C)c2)cc1C1(Cc2ccccc2)CCN(C(=O)C2(C(F)(F)F)CC2)C1 (stereo not shown) [Example 330, 5-(5-(3-benzyl-1-(1-(trifluoromethyl)cyclopropane-1-carbonyl)pyrrolidin-3-yl)-6-methyl-1H-indazol-1-yl)-1-methylpyridin-2(1H)-one]	–	0.016 µM	0.2 µM
Cc1cc2c(cnn2-c2ccc(=O)n(C)c2)cc1C1(Cc2ccccc2)CCN(C(=O)C2CC2C)C1 (stereo not shown) [Example 331, 5-(5-(3-benzyl-1-(2-methylcyclopropane-1-carbonyl)pyrrolidin-3-yl)-6-methyl-1H-indazol-1-yl)-1-methylpyridin-2(1H)-one]	–	0.015 µM	0.1 µM
Cc1cc2c(cnn2-c2ccc(=O)n(C)c2)cc1C1(Cc2ccccc2)CN(S(=O)(=O)c2cnn(C)n2)CC1C (stereo not shown) [Example 335, 5-(5-(3-benzyl-4-methyl-1-((2-methyl-2H-1,2,3-triazol-4-yl)sulfonyl)pyrrolidin-3-yl)-6-methyl-1H-indazol-1-yl)-1-methylpyridin-2(1H)-one]	–	0.011 µM	0.046 µM
Cc1cc2c(cnn2-c2ccc(F)cc2)cc1C1(Cc2ccccc2)CCN(Cc2ccccc2)C1=O (stereo not shown) [Example 337, 1,3-dibenzyl-3-(1-(4-fluorophenyl)-6-methyl-1H-indazol-5-yl)pyrrolidin-2-one]	–	0.25 µM	0.11 µM
CS(=O)(=O)N1CCC(Cc2ccccc2)(c2ccc3c(cnn3-c3ccc(F)cc3)c2)C1=O (stereo not shown) [Example 338, 3-benzyl-3-(1-(4-fluorophenyl)-1H-indazol-5-yl)-1-(methylsulfonyl)pyrrolidin-2-one]	–	0.026 µM	0.12 µM
Cc1cc2c(cnn2-c2ccc(F)cc2)cc1C1(Cc2ccccc2)CCN(S(C)(=O)=O)C1=O (stereo not shown) [Example 339, 3-benzyl-3-(1-(4-fluorophenyl)-6-methyl-1H-indazol-5-yl)-1-(methylsulfonyl)pyrrolidin-2-one]	–	0.044 µM	0.12 µM
COCC1(c2cc3cnn(-c4ccc(F)cc4)c3cc2C)CCN(S(=O)(=O)c2cnn(C)c2)C1 (stereo not shown) [Example 340, 1-(4-fluorophenyl)-5-(3-(methoxymethyl)-1-((1-methyl-1H-pyrazol-4-yl)sulfonyl)pyrrolidin-3-yl)-6-methyl-1H-indazole]	–	0.057 µM	0.82 µM

The next lines start with results.

EC50 [1]	IC50 [3]	SMILES	Ki [2]
–	0.044 µM	Cc1cc2c(cnn2-c2ccc(=O)n(C)c2)cc1C1(Cc2ccccc2)CCN(C(=O)c2ccccc2)C1 (stereo not shown) [Example 326, 5-(5-(1-benzoyl-3-benzylpyrrolidin-3-yl)-6-methyl-1H-indazol-1-yl)-1-methylpyridin-2(1H)-one]	0.057 µM
–	0.17 µM	Cc1cc2c(cnn2-c2ccc(=O)n(C)c2)cc1C1(Cc2ccccc2)CCN(C(=O)c2ccnnc2)C1 (stereo not shown) [Example 327, 5-(5-(3-benzyl-1-(pyridazine-4-carbonyl)pyrrolidin-3-yl)-6-methyl-1H-indazol-1-yl)-1-methylpyridin-2(1H)-one]	0.54 µM
–	0.01 µM	Cc1cc2c(cnn2-c2ccc(=O)n(C)c2)cc1C1(Cc2ccccc2)CCN(C(=O)c2ccsc2)C1 (stereo not shown) [Example 329, 5-(5-(3-benzyl-1-(thiophene-3-carbonyl)pyrrolidin-3-yl)-6-methyl-1H-indazol-1-yl)-1-methylpyridin-2(1H)-one]	0.14 µM
–	0.02 µM	Cc1cc2c(cnn2-c2ccc(=O)n(C)c2)cc1C1(Cc2ccccc2)CCN(C(=O)C2CC2)C1 (stereo not shown) [Example 332, 5-(5-(3-benzyl-1-(cyclopropanecarbonyl)pyrrolidin-3-yl)-6-methyl-1H-indazol-1-yl)-1-methylpyridin-2(1H)-one]	0.16 µM
